According to patent US20170266289A1, “TOPICAL FORMULATION” (AbbVie Inc., priority 2014, published 2017):
Values joined by “and” are separate entries in the source; they are usually repeats but may differ in a detail not shown here. Identical values can stand only once. Like-named read-outs stand apart in the source and are kept apart here.

Experiments:
Stability in plasma = format: in vitro ADME
Excerpt: Note that, due to the fact that BMS DPP is unstable in the plasma, the total blood concentration of BMS DPP cannot be determined.

[1] = test system: FITC-induced contact hypersensitivity (CHS); assay: Prophylactic topical treatment of FITC-induced contact hypersensitivity, ear skin thickness; format: in vivo, mice; conditions: 1 hr prior to FITC challenge
Excerpt: Contact hypersensitivity (CHS) is an immunological response against a small chemical hapten. During the sensitization phase, dermal dendritic cells (DCs) and Langerhans cells take up the hapten peptide conjugate and process it and migrate to the draining lymph node, where they present the antigen (Ag) to naive T cells, leading to the formation of Ag-specific memory T cells. Subsequent contact with the same chemical results in the activation of memory T cells and the recruitment of inflammatory cells to the site of allergen exposure. This elicitation response is manifested as skin inflammation, which in a clinical context is called allergic contact dermatitis. One of the small chemical haptens is FITC. FITC-induced CHS is believed to be predominantly associated with the activation of Th2 cells. Upon challenging the skin with FITC in mice sensitized with FITC, it is believed that FITC-specific T cells are recruited to the skin and produce Th2 cytokines, including IL-4.
Briefly, on Day 0, ears of experimental animals were sensitized with FITC. On Day 6, ears of the treatment group animals (0.01%, 0.1%, and 1% treatment groups) were first provided topical treatment of the subject formulations one hour prior to the FITC challenge. Specifically, 20 μL total (10 μL inner ear, and 10 μL outer ear) of topical treatment were massaged all around the ear of each experimental animals prior to FITC epicutaneous application. […] Naïve group animals received no treatment during the experiment. On Day 7, about 24 hours post FITC challenge, ear thickness (in mm) of all animals were measured.
Betamethasone Dipropionate (BMS DPP) topical cream formulations with different concentrations (0.005%, 0.01%, 0.1%, and 1% w/w) were prepared according to Example 3.

[2] = test system: FITC-induced contact hypersensitivity (CHS); assay: Topical treatment after FITC challenge in FITC-induced contact hypersensitivity, ear skin thickness; format: in vivo, mice; conditions: 4 hrs post FITC challenge
Procedure: Briefly, on Day 0, ears of experimental animals were sensitized with FITC. […] Naïve group animals received no treatment during the experiment. On Day 7, about 24 hours post FITC challenge, ear thickness (in mm) of all animals were measured. […]

[3] = Optical microscopy examination of the formulations; format: physicochemical; conditions: increasing the Transcutol HP content; data not shown
Excerpt: Thus maintaining a saturated solution with the presence of TRANSCUTOL HP™ is expected to increase in vitro flux and increase resultant skin exposures.

[4] = In vitro release testing in […] plates, flux through polycarbonate membrane; format: in vitro ADME
Procedure: (§1) Diffusion assays were performed using Franz Cells and […]® plates, with Tuffryn®, polycarbonate, or polyester membranes, as well as hairless mouse skin. HPLC was employed to analyze in vitro samples.
(§2) For in vitro release testing in […]® plates, a two-compartment well system was used, with an internal well having a membrane as the formulation compartment, and an outer well filled with receptor media (phosphate buffer with 2% BSA). The TRANS WELL® plates were then agitated in a temperature-controlled incubator with shaker. Samples were manually pulled at pre-determined intervals with a pipette. New media was added to the receptor well after each sampling to make up the volume loss.
(§3) Generally, flux is calculated by determining the amount of solute that diffuses across a membrane of known surface area per unit time. There are many ways to calculate this value. We measured solute concentration in known volumes of receiver media and calculated the total amount that diffused over the time course of the experiment.

[5] = In vitro release testing in […] plates, flux through polyester membrane; format: in vitro ADME
Procedure: as §1, §2, §3

[6] = Plasma PK and skin concentration after topical application of gel-cream to shaved backs of rats; format: in vivo; conditions: for Cmax / AUC(0-t): topical or ocular, rat plasma; for Kp at 24 h: skin/plasma
Procedure: In order to assess the effect of the permeation enhancer on API delivery to the skin (topical delivery) and to the plasma (systamic delivery) in vivo, 177.8 mg of the subject topical formulation (177.8 μL of the 1% Compound 1 gel-cream, or about 1.778 mg of Compound 1) was applied to the backs of rats on a 4 cm^2 area of shaved skin. Plasma PK data was obtained during a period of about 24 hours following the topical application. See results in FIG. 9A, and the tables below.
The same experiment was repeated for a topical formulation using Compound 2 as the API. Also see FIG. 9B.

[7] = In vitro release testing in Franz Cells, flux through Tuffryn membrane; format: in vitro ADME
Procedure: as §1
Specifically, for the in vitro release testing in Franz Cells, vertical diffusion cells were filled with receptor media (phosphate buffer with 2% BSA). The receptor media was then agitated, with the exception of setup and sampling. Temperature is maintained at 32.5±2.0° C. Artificial membrane was then placed on the top of the cell, along with a dosage wafer, the formulation to be evaluated, and a glass sealing cap. A formulation permeability test was run in triplicate. Samples were collected at various programmed intervals, and sampling was an automated process by the system. Fresh media was pushed into the bottom of the cell while simultaneous sampling occurs from the top of the cell. All wells were sampled in a serial manner with the time of each sample recorded by the instrument.
as §3

[8] = individual rats 1-3, topical 177.8 mg/animal in Formulation A (no Transcutol HP), 24 hr after dose
[9] = individual rats 4-6, topical 177.8 mg/animal in Formulation B (10% Transcutol HP), 24 hr after dose

## CCC(=O)OCC(=O)[C@@]1(OC(=O)CC)[C@@H](C)C[C@H]2[C@@H]3CCC4=CC(=O)C=C[C@]4(C)[C@@]3(F)[C@@H](O)C[C@@]21C [BMS DPP, Betamethasone Dipropionate]
Stability in plasma
  stability in the plasma: unstable
[1]; Study 1, 0.01%
  reduced ear skin thickness: 77%
[1]; Study 1, 0.1%
  reduced ear skin thickness: 93%
[1]; Study 1, 1%
  reduced ear skin thickness: 95%
[1]; Study 2, 0.005%
  reduced ear skin thickness: 61%
[1]; Study 2, 0.01%
  reduced ear skin thickness: 73%
[1]; Study 2, 0.1%
  reduced ear skin thickness: 93%
[1]; combined Study 1 and 2, 0.005%
  reduced ear skin thickness, effect: 61%
[1]; combined Study 1 and 2, 0.01%
  reduced ear skin thickness, effect: 75%
[1]; combined Study 1 and 2, 0.1%
  reduced ear skin thickness, effect: 93%
[1]; combined Study 1 and 2, 1%
  reduced ear skin thickness, effect: 95%
[2]; Study 1, 0.1%
  reduced ear skin thickness: 95%
[2]; Study 1, 1%
  reduced ear skin thickness: 96%
[2]; Study 2, 0.01%
  reduced ear skin thickness: 92%
[2]; Study 2, 0.1%
  reduced ear skin thickness: 96%
[2]; combined Study 1 and 2, 0.01%
  reduced ear skin thickness, effect: 92%
[2]; combined Study 1 and 2, 0.1%
  reduced ear skin thickness, effect: 95%
[2]; combined Study 1 and 2, 1%
  reduced ear skin thickness, effect: 96%

## CC[C@@H]1C[C@H](NS(=O)(=O)C2CC2)C[C@@H]1c1nnc2cnc3[nH]ccc3n12 [Compound 1, N-((1S,3R,4S)-3-ethyl-4-(6H-pyrrolo[2,3-e][1,2,4]triazolo[4,3-a]pyrazin-1-yl)cyclopentyl)cyclopropanesulfonamide]
[3]
  amount solubilized in the gel-cream formulation: solubilizes a greater amount
[4]
  Ratio Transcutol HP/no enhancer, Flux TRANSWELL plate Polycarbonate membrane: 1.35
[4]; Transcutol 10%
  Flux TRANSWELL plate Polycarbonate membrane: 11.46
[4]; no permeation enhancer
  Flux TRANSWELL plate Polycarbonate membrane: 8.52
[5]
  Ratio Transcutol HP/no enhancer, Flux TRANSWELL Plate polyester membrane: 1.33
[5]; Transcutol 10%
  Flux TRANSWELL Plate polyester membrane: 5.42
[5]; no permeation enhancer
  Flux TRANSWELL Plate polyester membrane: 4.09
[6]; rat, plasma, 177.8 mg, 177.8 mg 1% gel-cream topical on 4 cm^2, 10% Transcutol HP
  Cmax: 70.7 ng/mL
[6]; rat, plasma, 177.8 mg, 177.8 mg 1% gel-cream topical on 4 cm^2, no permeation enhancer
  Cmax: 11.4 ng/mL
[6]; rat, plasma, 177.8 mg, 177.8 mg 1% gel-cream topical, 10% Transcutol HP
  AUC(0-t): 392 ng·h/mL
[6]; rat, plasma, 177.8 mg, 177.8 mg 1% gel-cream topical, no permeation enhancer
  AUC(0-t): 62.4 ng·h/mL
[6]; rat, skin, topical, 1.778 mg, rat skin, 177.8 mg 1% gel-cream topical, 10% Transcutol HP, read-out: Skin conc. 24 hr
  concentration at 24 h: 25000 ng/g
[6]; rat, skin, topical, 1.778 mg, rat skin, 177.8 mg 1% gel-cream topical, no permeation enhancer, read-out: Skin conc. 24 hr
  concentration at 24 h: 5340 ng/g
[6]; rat, topical
  Ratio Transcutol HP/no enhancer, Plasma AUC0-t: 6.28
  Ratio Transcutol HP/no enhancer, Skin conc. 24 hr: 4.67
[7]
  Ratio Transcutol HP/no enhancer, Flux Franz Cells Tuffryn membrane: 1.20
[7]; Transcutol 10%
  Flux Franz Cells Tuffryn membrane: 7.64
[7]; no permeation enhancer
  Flux Franz Cells Tuffryn membrane: 6.34

## CC[C@@H]1CN(C(=O)NCC(F)(F)F)C[C@@H]1c1cnc2cnc3[nH]ccc3n12 [Compound 2, (3S,4R)-3-ethyl-4-(3H-imidazo[1,2-a]pyrrolo[2,3-e]pyrazin-8-yl)-N-(2,2,2-trifluoroethyl)pyrrolidine-1-carboxamide]
[6]; [8]
  Plasma Conc.: 0.00 ng/mL
  Skin Conc.: 2393 ng/g and 5908 ng/g and 7728 ng/g
[6]; individual rats 4-6, Formulation B, 24 hr after dose
  Skin/Plasma Ratio: 11076
[6]; [9]
  Plasma Conc.: 4.46 ng/mL and 2.87 ng/mL and 0.00 ng/mL
  Skin Conc.: 31734 ng/g and 16020 ng/g
[6]; rat, plasma, topical, 177.8 mg, mean of rats 1-3, Formulation A, 24 hr after dose, read-out: Plasma Conc., Mean
  concentration at 24 h: 0 ng/mL
[6]; rat, plasma, topical, 177.8 mg, mean of rats 4-6, Formulation B, 24 hr after dose, read-out: Plasma Conc., Mean
  concentration at 24 h: 2.44 ng/mL
[6]; rat, plasma, topical, 177.8 mg/animal, individual rats 1-3, topical 177.8 mg/animal in Formulation A (no Transcutol HP), 24 hr after dose, read-out: Plasma Conc.
  concentration at 24 h: 0 ng/mL
[6]; rat, skin, topical, 177.8 mg, mean of rats 1-3, Formulation A, 24 hr after dose, read-out: Skin Conc., Mean
  concentration at 24 h: 5340 ng/g
[6]; rat, skin, topical, 177.8 mg, mean of rats 4-6, Formulation B, 24 hr after dose, read-out: Skin Conc., Mean
  concentration at 24 h: 25000 ng/g
[6]; rat, skin, topical, 177.8 mg/animal, individual rats 4-6, topical 177.8 mg/animal in Formulation B (10% Transcutol HP), 24 hr after dose, read-out: Skin Conc.
  concentration at 24 h: 27100 ng/g
[6]; rat, topical, 177.8 mg, individual rats 4-6, Formulation B, 24 hr after dose, read-out: Skin/Plasma Ratio
  Kp at 24 h: 6080
[6]; rat, topical, 177.8 mg, mean, Formulation B, 24 hr after dose, read-out: Skin/Plasma Ratio, Mean
  Kp at 24 h: 8580
